In test [1] the target is Serine/threonine-protein kinase Nek9 (Homo sapiens) (UniProt Q8TD19). The test can be described thus: Inhibition of wild-type human partial length NEK9 (P32 to R328 residues) expressed in bacterial expression system at 1 uM by Kinomescan method relative to control.
Test [2] concerns the target Serine/threonine-protein kinase WNK4 (Homo sapiens) (UniProt Q96J92). The test can be described thus: Inhibition of wild-type human partial length WNK4 (A31 to D461 residues) expressed in mammalian expression system at 1 uM by Kinomescan method relative to control.
In test [3] the test system is Hepatocyte growth factor receptor (Homo sapiens), P08581 [Y1235D]. The test can be described thus: Inhibition of human partial length MET Y1235D mutant (D1010 to S1367 residues) expressed in bacterial expression system at 1 uM by Kinomescan method relative to control.
For test [4], the system named is Epidermal growth factor receptor (Homo sapiens), P00533 [UNDEFINED MUTATION]. The test can be described thus: Inhibition of human partial length EGFR L747-S752del/P753S mutant expressed in bacterial expression system at 1 uM by Kinomescan method relative to control.
For test [5], the target named is Mitogen-activated protein kinase 1 (Homo sapiens) (UniProt P28482). The test can be described thus: Inhibition of wild-type human full length ERK2 (M1 to S360 residues) expressed in bacterial expression system at 1 uM by Kinomescan method relative to control.
For test [6], the target named is Myosin light chain kinase (Homo sapiens) (UniProt Q32MK0). The test can be described thus: Inhibition of wild-type human partial length MLCK (D488 to K800 residues) expressed in bacterial expression system at 1 uM by Kinomescan method relative to control.
The target in test [7] is Serine/threonine-protein kinase 32A (Homo sapiens) (UniProt Q8WU08). The test can be described thus: Inhibition of wild-type human full length YANK1 (M1 to L396 residues) expressed in mammalian expression system at 1 uM by Kinomescan method relative to control.
Chain of Serine/threonine-protein kinase 32A (Homo sapiens) (Q8WU08 whole entry, the tested form may be a part): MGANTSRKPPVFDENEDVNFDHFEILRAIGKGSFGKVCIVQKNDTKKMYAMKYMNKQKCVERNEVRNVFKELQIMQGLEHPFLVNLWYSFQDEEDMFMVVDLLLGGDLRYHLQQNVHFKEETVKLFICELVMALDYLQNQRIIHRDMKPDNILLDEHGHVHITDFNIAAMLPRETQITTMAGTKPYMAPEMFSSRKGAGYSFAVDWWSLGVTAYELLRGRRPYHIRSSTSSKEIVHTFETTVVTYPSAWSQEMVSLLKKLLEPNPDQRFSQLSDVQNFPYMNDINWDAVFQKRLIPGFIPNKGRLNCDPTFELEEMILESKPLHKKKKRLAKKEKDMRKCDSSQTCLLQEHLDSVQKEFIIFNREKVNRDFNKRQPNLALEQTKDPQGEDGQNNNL
The target in test [8] is Tyrosine-protein kinase Fyn (Homo sapiens) (UniProt P06241). The test can be described thus: Inhibition of wild-type human partial length FYN (T243 to L534 residues) expressed in bacterial expression system at 1 uM by Kinomescan method relative to control.
Chain of Tyrosine-protein kinase Fyn (Homo sapiens) (P06241 2-537 limits assumed): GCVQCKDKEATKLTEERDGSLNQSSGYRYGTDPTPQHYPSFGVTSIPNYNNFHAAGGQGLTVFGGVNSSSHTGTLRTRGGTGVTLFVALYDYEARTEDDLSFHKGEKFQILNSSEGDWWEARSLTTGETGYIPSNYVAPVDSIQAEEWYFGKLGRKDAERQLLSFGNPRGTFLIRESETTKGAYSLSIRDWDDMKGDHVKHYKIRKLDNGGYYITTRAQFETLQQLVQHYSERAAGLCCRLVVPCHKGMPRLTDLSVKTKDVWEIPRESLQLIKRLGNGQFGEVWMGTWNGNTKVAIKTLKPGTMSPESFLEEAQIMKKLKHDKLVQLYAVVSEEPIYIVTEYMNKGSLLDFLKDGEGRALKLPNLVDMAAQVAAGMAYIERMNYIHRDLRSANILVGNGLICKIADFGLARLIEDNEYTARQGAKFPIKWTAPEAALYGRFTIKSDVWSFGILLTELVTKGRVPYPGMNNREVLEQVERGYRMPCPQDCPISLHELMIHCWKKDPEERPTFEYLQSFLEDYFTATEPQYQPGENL
The target of test [9] is Mitogen-activated protein kinase kinase kinase 1 (Homo sapiens) (UniProt Q13233). The test can be described thus: Inhibition of wild-type human partial length MAP3K1 (L1202 to W1512 residues) expressed in mammalian expression system at 1 uM by Kinomescan method relative to control.
Test [10] addresses Serine/threonine-protein kinase MARK1 (Homo sapiens) (UniProt Q9P0L2). The test can be described thus: Inhibition of wild-type human partial length MARK1 (Q30 to T341 residues) expressed in bacterial expression system at 1 uM by Kinomescan method relative to control.
In test [11] the target is Mitogen-activated protein kinase kinase kinase 20 (Homo sapiens) (UniProt Q9NYL2). The test can be described thus: Inhibition of wild-type human partial length ZAK (M1 to L331 residues) expressed in bacterial expression system at 1 uM by Kinomescan method relative to control.
Chain of Mitogen-activated protein kinase kinase kinase 20 (Homo sapiens) (Q9NYL2 2-800 limits assumed): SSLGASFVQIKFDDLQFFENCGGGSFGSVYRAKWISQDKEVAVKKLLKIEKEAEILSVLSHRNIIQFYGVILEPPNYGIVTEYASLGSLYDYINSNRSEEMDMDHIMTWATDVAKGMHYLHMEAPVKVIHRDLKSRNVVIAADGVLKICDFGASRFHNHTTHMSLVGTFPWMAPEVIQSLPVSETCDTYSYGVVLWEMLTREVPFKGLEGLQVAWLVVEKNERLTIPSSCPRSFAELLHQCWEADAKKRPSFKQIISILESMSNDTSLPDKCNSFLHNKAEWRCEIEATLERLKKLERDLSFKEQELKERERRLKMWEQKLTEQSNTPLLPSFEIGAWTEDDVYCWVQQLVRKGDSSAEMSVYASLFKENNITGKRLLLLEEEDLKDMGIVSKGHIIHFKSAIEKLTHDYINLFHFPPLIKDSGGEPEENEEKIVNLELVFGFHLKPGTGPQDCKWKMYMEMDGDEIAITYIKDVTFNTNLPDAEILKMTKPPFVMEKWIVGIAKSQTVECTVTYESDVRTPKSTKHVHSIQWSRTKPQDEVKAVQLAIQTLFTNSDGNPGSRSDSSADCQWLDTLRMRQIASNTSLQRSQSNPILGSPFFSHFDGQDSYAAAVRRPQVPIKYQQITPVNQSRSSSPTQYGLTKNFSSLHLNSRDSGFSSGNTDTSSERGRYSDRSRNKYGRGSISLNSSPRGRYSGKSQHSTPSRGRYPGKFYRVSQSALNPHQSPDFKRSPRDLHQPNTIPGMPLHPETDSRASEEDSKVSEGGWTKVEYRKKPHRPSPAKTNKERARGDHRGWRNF
The target in test [12] is Serine/threonine-protein kinase B-raf (Homo sapiens) (UniProt P15056). The test can be described thus: Inhibition of wild-type human partial length BRAF (S429 to E741 residues) expressed in mammalian expression system at 1 uM by Kinomescan method relative to control.
The target of test [13] is Casein kinase I isoform alpha (Homo sapiens) (UniProt P48729). The test can be described thus: Inhibition of wild-type human partial length CSNK1A1 (M1 to L450 residues) expressed in mammalian expression system at 1 uM by Kinomescan method relative to control.
For test [14], the target named is Mitogen-activated protein kinase kinase kinase kinase 4 (Homo sapiens) (UniProt O95819). The test can be described thus: Inhibition of wild-type human partial length MAP4K4 (M1 to R310 residues) expressed in bacterial expression system at 1 uM by Kinomescan method relative to control.
Test [15] has as its target Interleukin-1 receptor-associated kinase 3 (Homo sapiens) (UniProt Q9Y616). The test can be described thus: Inhibition of wild-type human partial length IRAK3 (V147 to E596 residues) expressed in bacterial expression system at 1 uM by Kinomescan method relative to control.
Test [16] addresses Megakaryocyte-associated tyrosine-protein kinase (Homo sapiens) (UniProt P42679). The test can be described thus: Inhibition of wild-type human full length CTK (M43 to P508 residues) expressed in mammalian expression system at 1 uM by Kinomescan method relative to control.
For test [17], the target named is Cyclin-dependent kinase-like 1 (Homo sapiens) (UniProt Q00532). The test can be described thus: Inhibition of wild-type human full length CDKL1 (M1 to I358 residues) expressed in mammalian expression system at 1 uM by Kinomescan method relative to control.
The target in test [18] is Serine/threonine-protein kinase D1 (Homo sapiens) (UniProt Q15139). The test can be described thus: Inhibition of wild-type human partial length PRKD1 (G551 to E870 residues) expressed in bacterial expression system at 10 uM by Kinomescan method relative to control.
Test [19] addresses Dual specificity tyrosine-phosphorylation-regulated kinase 1A (Homo sapiens) (UniProt Q13627). The test can be described thus: Inhibition of wild-type human partial length DYRK1A (H129 to S509 residues) expressed in mammalian expression system at 10 uM by Kinomescan method relative to control.
For test [20], the target named is Epithelial discoidin domain-containing receptor 1 (Homo sapiens) (UniProt Q08345). The test can be described thus: Inhibition of wild-type human partial length DDR1 (R565 to V876 residues) expressed in bacterial expression system at 10 uM by Kinomescan method relative to control.
Test [21] deals with Calcium/calmodulin-dependent protein kinase type II subunit beta (Homo sapiens) (UniProt Q13554). The test can be described thus: Inhibition of wild-type human partial length CAMK2B (M1 to Q380 residues) expressed in bacterial expression system at 10 uM by Kinomescan method relative to control.
Test [22] deals with Mitogen-activated protein kinase kinase kinase 3 (Homo sapiens) (UniProt Q99759). The test can be described thus: Inhibition of wild-type human partial length MAP3K3 (E320 to Y626 residues) expressed in mammalian expression system at 10 uM by Kinomescan method relative to control.
The target in test [23] is Rhodopsin kinase GRK1 (Homo sapiens) (UniProt Q15835). The test can be described thus: Inhibition of wild-type human full length GRK1 (M1 to S563 residues) expressed in mammalian expression system at 10 uM by Kinomescan method relative to control.
Test [24] addresses Fibroblast growth factor receptor 4 (Homo sapiens) (UniProt P22455). The test can be described thus: Inhibition of wild-type human partial length FGFR4 (G402 to E713 residues) expressed in bacterial expression system at 10 uM by Kinomescan method relative to control.
In test [25] the test system is Proto-oncogene tyrosine-protein kinase receptor Ret (Homo sapiens), P07949 [M918T]. The test can be described thus: Inhibition of human partial length RET M918T mutant (E713 to D1014 residues) expressed in bacterial expression system at 10 uM by Kinomescan method relative to control.
For test [26], the system named is Receptor-type tyrosine-protein kinase FLT3 (Homo sapiens), P36888 [UNDEFINED MUTATION]. The test can be described thus: Inhibition of human partial length FLT3 ITD mutant expressed in bacterial expression system at 10 uM by Kinomescan method relative to control.
Chain of Receptor-type tyrosine-protein kinase FLT3 (Homo sapiens), P36888 [UNDEFINED MUTATION] (P36888 whole entry, looked up, change not shown, the tested form may be a part): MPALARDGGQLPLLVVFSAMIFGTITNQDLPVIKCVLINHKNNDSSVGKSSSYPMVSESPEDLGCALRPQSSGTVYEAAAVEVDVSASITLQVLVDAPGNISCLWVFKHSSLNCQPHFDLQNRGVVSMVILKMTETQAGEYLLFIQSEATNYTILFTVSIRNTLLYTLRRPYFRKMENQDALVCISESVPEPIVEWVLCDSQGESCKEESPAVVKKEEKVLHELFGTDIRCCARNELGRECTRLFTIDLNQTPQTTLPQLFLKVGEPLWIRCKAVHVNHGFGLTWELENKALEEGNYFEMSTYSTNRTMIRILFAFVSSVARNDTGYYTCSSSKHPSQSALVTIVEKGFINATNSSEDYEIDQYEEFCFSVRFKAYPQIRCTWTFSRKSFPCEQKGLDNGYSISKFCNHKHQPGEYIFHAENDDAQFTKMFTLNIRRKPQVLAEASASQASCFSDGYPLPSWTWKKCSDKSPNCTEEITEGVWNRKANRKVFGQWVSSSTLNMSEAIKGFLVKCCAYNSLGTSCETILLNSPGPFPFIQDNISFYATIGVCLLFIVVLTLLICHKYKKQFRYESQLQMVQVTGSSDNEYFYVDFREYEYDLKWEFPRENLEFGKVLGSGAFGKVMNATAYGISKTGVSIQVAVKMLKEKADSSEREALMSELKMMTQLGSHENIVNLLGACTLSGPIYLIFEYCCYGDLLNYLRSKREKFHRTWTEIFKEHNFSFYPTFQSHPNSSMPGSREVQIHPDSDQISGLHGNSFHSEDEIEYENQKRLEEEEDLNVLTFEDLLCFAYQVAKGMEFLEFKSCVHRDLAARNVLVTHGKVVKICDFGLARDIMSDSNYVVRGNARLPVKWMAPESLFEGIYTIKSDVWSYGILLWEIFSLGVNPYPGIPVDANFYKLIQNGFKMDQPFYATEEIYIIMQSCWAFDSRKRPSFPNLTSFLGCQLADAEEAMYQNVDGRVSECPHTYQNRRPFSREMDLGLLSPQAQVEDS
For test [27], the target named is Ephrin type-A receptor 6 (Homo sapiens) (UniProt Q9UF33). The test can be described thus: Inhibition of wild-type human partial length EPHA6 (Y700 to E1046 residues) expressed in bacterial expression system at 10 uM by Kinomescan method relative to control.

Chain of Serine/threonine-protein kinase Nek9 (Homo sapiens) (Q8TD19 whole entry, the tested form may be a part): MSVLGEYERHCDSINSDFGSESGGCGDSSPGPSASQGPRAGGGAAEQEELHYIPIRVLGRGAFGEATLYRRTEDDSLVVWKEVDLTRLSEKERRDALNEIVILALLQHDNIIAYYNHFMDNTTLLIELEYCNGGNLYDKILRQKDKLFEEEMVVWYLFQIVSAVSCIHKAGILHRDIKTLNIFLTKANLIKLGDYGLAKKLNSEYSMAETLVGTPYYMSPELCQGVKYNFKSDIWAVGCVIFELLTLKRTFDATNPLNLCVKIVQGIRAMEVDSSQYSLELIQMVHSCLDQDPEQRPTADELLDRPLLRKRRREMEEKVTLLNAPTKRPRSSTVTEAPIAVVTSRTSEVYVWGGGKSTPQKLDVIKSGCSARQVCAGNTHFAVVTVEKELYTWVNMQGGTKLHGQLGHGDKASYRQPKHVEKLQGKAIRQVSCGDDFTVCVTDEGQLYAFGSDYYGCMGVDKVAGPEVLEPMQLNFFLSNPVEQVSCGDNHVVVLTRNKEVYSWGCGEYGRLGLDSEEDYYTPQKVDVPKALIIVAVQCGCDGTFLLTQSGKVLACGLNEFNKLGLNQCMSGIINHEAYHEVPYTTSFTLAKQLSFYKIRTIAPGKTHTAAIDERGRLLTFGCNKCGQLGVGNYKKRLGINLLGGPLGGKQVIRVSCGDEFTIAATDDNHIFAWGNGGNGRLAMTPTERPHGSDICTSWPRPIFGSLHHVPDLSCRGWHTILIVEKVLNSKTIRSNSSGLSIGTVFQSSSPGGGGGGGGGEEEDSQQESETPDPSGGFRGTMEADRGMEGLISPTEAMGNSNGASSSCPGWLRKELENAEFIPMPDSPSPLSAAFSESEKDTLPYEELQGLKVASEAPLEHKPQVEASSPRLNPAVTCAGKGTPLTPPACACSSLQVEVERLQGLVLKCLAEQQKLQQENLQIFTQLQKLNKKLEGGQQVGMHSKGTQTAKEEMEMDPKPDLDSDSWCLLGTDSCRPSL
Chain of Serine/threonine-protein kinase MARK1 (Homo sapiens) (Q9P0L2 whole entry, looked up, the tested form may be a part): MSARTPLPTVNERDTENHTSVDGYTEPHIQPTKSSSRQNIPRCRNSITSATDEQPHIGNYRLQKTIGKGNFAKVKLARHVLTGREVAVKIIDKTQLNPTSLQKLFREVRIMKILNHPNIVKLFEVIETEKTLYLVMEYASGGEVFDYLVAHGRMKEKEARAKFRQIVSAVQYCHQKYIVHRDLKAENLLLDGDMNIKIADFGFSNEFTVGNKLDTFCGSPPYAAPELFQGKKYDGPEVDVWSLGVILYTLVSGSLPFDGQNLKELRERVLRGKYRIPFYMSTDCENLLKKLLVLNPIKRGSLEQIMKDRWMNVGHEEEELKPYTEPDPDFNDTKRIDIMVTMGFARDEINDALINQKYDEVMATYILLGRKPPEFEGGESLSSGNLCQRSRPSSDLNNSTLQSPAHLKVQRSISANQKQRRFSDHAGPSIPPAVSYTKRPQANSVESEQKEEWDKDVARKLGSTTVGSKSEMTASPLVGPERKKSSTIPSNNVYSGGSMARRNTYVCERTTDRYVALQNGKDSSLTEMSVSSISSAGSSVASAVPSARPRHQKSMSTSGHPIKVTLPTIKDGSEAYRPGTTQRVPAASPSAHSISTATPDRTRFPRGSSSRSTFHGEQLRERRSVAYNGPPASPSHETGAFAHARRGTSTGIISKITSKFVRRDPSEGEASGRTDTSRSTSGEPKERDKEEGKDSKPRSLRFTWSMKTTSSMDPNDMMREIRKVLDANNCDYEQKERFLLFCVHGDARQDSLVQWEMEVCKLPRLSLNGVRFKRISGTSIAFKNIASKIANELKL
Chain of Megakaryocyte-associated tyrosine-protein kinase (Homo sapiens) (P42679 whole entry, the tested form may be a part): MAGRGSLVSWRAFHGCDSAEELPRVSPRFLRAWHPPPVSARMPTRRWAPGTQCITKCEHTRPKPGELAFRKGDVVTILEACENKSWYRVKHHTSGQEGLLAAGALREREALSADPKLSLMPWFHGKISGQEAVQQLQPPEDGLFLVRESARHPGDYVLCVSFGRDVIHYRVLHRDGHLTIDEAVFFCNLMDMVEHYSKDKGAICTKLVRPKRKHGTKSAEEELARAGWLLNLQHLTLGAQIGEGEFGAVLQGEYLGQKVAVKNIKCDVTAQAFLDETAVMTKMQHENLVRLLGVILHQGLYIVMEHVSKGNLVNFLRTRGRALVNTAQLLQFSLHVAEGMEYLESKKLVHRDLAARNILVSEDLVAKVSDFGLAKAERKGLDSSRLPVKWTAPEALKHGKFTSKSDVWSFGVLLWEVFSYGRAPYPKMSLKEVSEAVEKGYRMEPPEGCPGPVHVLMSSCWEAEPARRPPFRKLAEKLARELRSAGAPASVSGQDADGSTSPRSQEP

`O=C(Nc1cccc([C@@H]2CN(c3ncnc4[nH]ccc34)CCN2CCO)c1)Nc1c(F)cccc1N1CCCC1`: the inhibition (usually the relative decrease from the control value, in per cent) was 95% in test [1]; 96% in test [2]; 67% in [3]; 100% in test [4]; 90% in test [5]; 100% in [6]. Also, the inhibition is 100% in test [7]; 52% in test [8]; 70% in test [9]; 97% in test [10]; 100% in test [11]; 86% in test [12]. In addition, the inhibition in test [13] turned out to be 81%; in test [14], 100%; in test [15], 100%; in [16], 81%; in [17], 73%.

For `O=C(Nc1cccc([C@H]2CCCN(c3ncnc4[nH]ccc34)C2)c1)Nc1ccccc1N1CCCC1`, the inhibition in [18] turned out to be 100%; in test [19], 81%; in test [20], 3.5%; in [21], 87%; in test [22] it was 24%; in test [23] it was 63%. The inhibition in test [24] came out at 96%; in [25] it was 0%; in test [26], 8.5%; in [27], 51%.

The record behind these values is ChEMBL document CHEMBL4387741, “Optimization of novel reversible Bruton's tyrosine kinase inhibitors identified using Tethering-fragment-based screens” (Bioorg Med Chem, 2019).
